Test results from article PMC10882719 (Frontiers in Neuroscience, 2024).
Where two headings read alike, the source gives them in different places.

Assays:
Format in all cases: cell-based
[1] = target: T1, 168 GPCRs (Homo sapiens, UniProt Q8TCW9); conditions: PROKR1
T1 construct: host or cells: PathHunter cell lines

[2] = target: T2, 168 GPCRs (Homo sapiens, UniProt O95977)
T2 construct: host or cells: PathHunter cell lines
T2 sequence (O95977 1-384): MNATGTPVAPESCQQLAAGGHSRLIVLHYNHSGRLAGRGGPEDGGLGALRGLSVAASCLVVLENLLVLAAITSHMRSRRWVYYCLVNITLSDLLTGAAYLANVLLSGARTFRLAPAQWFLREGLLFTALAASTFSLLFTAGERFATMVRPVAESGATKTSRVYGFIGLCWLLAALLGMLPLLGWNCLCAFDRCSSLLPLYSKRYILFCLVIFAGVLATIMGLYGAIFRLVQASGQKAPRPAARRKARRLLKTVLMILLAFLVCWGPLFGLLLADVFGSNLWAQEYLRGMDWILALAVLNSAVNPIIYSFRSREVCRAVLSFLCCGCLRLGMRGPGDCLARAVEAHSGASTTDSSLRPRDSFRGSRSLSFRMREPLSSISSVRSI

[3] = target: T3, 168 GPCRs (Homo sapiens, UniProt P08172)
T3 construct: host or cells: PathHunter cell lines
T3 sequence (P08172 1-466): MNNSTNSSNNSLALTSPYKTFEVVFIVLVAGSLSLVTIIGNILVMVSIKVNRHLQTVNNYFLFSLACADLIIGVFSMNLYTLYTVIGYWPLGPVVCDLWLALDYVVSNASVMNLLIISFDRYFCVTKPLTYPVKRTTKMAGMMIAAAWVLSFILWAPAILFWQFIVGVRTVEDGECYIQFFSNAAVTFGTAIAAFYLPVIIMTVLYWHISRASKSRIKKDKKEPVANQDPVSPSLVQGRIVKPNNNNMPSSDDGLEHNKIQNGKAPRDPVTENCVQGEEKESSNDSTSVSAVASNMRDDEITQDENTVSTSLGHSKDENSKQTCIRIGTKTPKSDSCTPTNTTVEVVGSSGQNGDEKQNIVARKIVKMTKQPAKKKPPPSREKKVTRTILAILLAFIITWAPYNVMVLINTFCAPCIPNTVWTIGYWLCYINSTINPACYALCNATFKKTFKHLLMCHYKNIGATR

[4] = target: T4, 168 GPCRs (Homo sapiens, UniProt P61073)
T4 construct: host or cells: PathHunter cell lines

[5] = target: T5, 168 GPCRs (Homo sapiens, UniProt P51684)
T5 construct: host or cells: PathHunter cell lines
T5 sequence (P51684 1-374): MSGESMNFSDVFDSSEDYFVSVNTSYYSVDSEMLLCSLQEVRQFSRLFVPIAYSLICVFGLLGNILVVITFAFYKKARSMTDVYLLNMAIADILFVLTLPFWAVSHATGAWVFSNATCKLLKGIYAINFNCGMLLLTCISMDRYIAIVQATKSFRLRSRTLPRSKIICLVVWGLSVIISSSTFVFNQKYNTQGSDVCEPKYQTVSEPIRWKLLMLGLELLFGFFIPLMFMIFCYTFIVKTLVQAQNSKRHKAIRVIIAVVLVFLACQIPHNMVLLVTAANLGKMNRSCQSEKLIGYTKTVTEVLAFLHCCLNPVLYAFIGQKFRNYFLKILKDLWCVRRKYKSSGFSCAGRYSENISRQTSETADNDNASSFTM

[6] = target: T6, 168 GPCRs (Homo sapiens, UniProt P51686)
T6 construct: host or cells: PathHunter cell lines
T6 sequence (P51686 1-369): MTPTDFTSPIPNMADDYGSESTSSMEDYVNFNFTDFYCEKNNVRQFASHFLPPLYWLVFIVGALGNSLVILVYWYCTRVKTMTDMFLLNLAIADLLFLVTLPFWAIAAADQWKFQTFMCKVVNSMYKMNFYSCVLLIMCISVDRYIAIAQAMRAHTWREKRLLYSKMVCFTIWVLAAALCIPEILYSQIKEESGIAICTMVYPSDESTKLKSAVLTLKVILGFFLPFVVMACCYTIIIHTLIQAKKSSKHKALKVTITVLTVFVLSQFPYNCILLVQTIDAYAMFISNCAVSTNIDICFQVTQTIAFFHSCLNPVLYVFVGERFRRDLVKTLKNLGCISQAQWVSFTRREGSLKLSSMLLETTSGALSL

[7] = target: T7, 168 GPCRs (Homo sapiens, UniProt Q8TDS5); conditions: OXER1
T7 construct: host or cells: PathHunter cell lines

[8] = target: T8, 168 GPCRs (Homo sapiens, UniProt O14842)
T8 construct: host or cells: PathHunter cell lines
T8 sequence (O14842 whole entry): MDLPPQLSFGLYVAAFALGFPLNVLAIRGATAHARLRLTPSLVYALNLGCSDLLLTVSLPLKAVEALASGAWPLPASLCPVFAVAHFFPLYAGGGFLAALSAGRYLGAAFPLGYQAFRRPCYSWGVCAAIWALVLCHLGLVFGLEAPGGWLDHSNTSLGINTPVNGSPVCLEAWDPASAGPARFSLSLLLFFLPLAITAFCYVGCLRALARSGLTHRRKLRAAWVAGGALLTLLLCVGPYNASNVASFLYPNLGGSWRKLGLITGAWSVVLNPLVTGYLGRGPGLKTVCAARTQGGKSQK

T1 sequence (Q8TCW9 whole entry): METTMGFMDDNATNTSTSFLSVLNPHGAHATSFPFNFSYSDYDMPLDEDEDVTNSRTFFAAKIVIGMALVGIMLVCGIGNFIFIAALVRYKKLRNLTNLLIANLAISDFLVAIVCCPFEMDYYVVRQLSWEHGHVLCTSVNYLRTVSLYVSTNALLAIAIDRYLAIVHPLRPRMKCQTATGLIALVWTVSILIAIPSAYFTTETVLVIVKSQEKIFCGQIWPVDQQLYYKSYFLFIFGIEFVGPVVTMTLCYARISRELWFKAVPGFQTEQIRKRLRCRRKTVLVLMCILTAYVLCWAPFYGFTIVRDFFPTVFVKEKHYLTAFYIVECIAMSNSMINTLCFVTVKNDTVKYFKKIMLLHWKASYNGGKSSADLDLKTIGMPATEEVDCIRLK
T4 sequence (P61073 whole entry): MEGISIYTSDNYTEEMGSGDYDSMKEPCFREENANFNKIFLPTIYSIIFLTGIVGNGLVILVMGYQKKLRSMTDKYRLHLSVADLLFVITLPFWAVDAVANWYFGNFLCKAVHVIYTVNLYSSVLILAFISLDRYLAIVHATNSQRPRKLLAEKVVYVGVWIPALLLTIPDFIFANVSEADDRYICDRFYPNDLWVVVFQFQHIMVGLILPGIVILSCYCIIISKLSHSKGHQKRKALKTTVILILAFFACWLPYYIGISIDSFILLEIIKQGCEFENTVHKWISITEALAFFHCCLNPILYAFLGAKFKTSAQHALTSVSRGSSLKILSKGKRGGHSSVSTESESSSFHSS
T7 sequence (Q8TDS5 whole entry): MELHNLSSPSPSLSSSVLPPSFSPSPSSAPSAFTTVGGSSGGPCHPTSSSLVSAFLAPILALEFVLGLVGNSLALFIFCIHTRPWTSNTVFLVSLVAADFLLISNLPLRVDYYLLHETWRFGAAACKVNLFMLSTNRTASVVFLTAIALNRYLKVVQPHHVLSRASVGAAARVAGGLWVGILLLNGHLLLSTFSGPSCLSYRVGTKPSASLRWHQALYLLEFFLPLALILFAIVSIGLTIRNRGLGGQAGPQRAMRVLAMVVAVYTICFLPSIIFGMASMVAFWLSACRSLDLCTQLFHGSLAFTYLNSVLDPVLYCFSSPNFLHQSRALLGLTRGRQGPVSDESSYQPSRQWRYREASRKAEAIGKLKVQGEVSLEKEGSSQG

| Structure (SMILES) | % Agonist Activity ([1]; Conc 1 uM) [%] | % Antagonist Activity ([1]; Conc 1 uM) [%] | % Agonist Activity ([1]; Conc 10 uM) [%] | % Antagonist Activity ([1]; Conc 10 uM) [%] | % Agonist Activity ([2]; EDG6, 1 uM) [%] | % Antagonist Activity ([2]; EDG6, 1 uM) [%] | % Agonist Activity ([2]; EDG6, 10 uM) [%] | % Antagonist Activity ([2]; EDG6, 10 uM) [%] | % Agonist Activity ([3]; CHRM2, 1 uM) [%] | % Antagonist Activity ([3]; CHRM2, 1 uM) [%] | % Agonist Activity ([3]; CHRM2, 10 uM) [%] | % Antagonist Activity ([3]; CHRM2, 10 uM) [%] | % Agonist Activity ([4]; CXCR4, 1 uM) [%] | % Antagonist Activity ([4]; CXCR4, 1 uM) [%] | % Agonist Activity ([4]; CXCR4, 10 uM) [%] | % Antagonist Activity ([4]; CXCR4, 10 uM) [%] | % Agonist Activity ([5]; CCR6, 1 uM) [%] | % Antagonist Activity ([5]; CCR6, 1 uM) [%] | % Agonist Activity ([5]; CCR6, 10 uM) [%] | % Antagonist Activity ([5]; CCR6, 10 uM) [%] | further results |
| --- | --- | --- | --- | --- | --- | --- | --- | --- | --- | --- | --- | --- | --- | --- | --- | --- | --- | --- | --- | --- | --- |
| CNC(C)C(=O)c1ccc2c(c1)OCO2 (stereo not shown) [methylone] | -1.3 | 8.7 | -2.8 | 3.3 | -1.7 | 13.2 | -0.3 | 7.8 | -0.2 | -18.5 | 0.2 | -7.4 | -4 | 10.7 | 7 | -4.2 | -2.9 | 9.3 | -3.3 | -1.6 | % Agonist Activity ([6]; CCR9, 1 uM): -0.5%; % Antagonist Activity ([6]; CCR9, 1 uM): 2.9%; % Agonist Activity ([6]; CCR9, 10 uM): 0.2%; % Antagonist Activity ([6]; CCR9, 10 uM): -9.9%; % Agonist Activity ([7]; Conc 1 uM): 3.2%; % Antagonist Activity ([7]; Conc 1 uM): 2.9%; % Agonist Activity ([7]; Conc 10 uM): -3.7%; % Antagonist Activity ([7]; Conc 10 uM): 7.6%; % Agonist Activity ([8]; FFAR1, 1 uM): 1.7%; % Antagonist Activity ([8]; FFAR1, 1 uM): -7.9%; % Agonist Activity ([8]; FFAR1, 10 uM): 4.5%; % Antagonist Activity ([8]; FFAR1, 10 uM): -13.8% |
| CNC(C)Cc1ccc2c(c1)OCO2 (stereo not shown) [MDMA, 3,4-Methylenedioxy methamphetamine, reference compound] | 0.3 | -8.7 | 0.7 | 8.5 | 6.3 | 14.1 | 4 | 18 | 0.9 | -1 | 1.4 | 10.5 | 3.1 | 19.6 | 2.5 | 14.6 | 1.4 | 0 | 0.7 | 0.3 | % Agonist Activity ([6]; CCR9, 1 uM): 0.1%; % Antagonist Activity ([6]; CCR9, 1 uM): 5.3%; % Agonist Activity ([6]; CCR9, 10 uM): 0.2%; % Antagonist Activity ([6]; CCR9, 10 uM): 14.5%; % Agonist Activity ([7]; Conc 1 uM): 6.3%; % Antagonist Activity ([7]; Conc 1 uM): -7.5%; % Agonist Activity ([7]; Conc 10 uM): 4.8%; % Antagonist Activity ([7]; Conc 10 uM): -1.7%; % Agonist Activity ([8]; FFAR1, 1 uM): 3.9%; % Antagonist Activity ([8]; FFAR1, 1 uM): -5.6%; % Agonist Activity ([8]; FFAR1, 10 uM): 7%; % Antagonist Activity ([8]; FFAR1, 10 uM): -0.4% |
